Experimental data as given in publication PMC7531004, “Discovery of gramicidin A analogues with altered activities by multidimensional screening of a one-bead-one-compound library” (Nature Communications, 2020).
Where a SMILES comes first, the peptide text is derived from it. [ ]: non-standard residue; d: D form. The star is where a group is joined. NHCH2CH2OH = OCCN*; For = O=C*

Legend:
[1] = H+/Na+ transport assay of bead-derived peptides (one-point); type: biochemical; design: key: relative activity; mean of two control wells = 1.00; settings: bead-derived peptide solution, EYPC/EYPG LUVs;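 further: relative to parent gramicidin A activity set to 1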
Summary of the method: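 H+/Na+ transport is monitored through pyranine fluorescence in freshly extruded LUVs after a 30-min room-temperature vortex with each library peptide at a single concentration. Signals are normalized to detergent (Triton X-100) and untreated controls.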

[2] = system: Streptococcus pyogenes SSI-9; assay: Antibacterial activity assay of bead-derived peptides (three concentrations); type: cell-based; design: key: +++: inhibition by the 640-fold diluted peptide solution; ++: inhibition by the 160-fold diluted solution; +: inhibition by the 40-fold diluted solution; -: no inhibition; settings: S. pyogenes, bead-derived peptide solution, three concentrations
Summary of the method: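 Library peptide stock applied undiluted, 4-fold and 16-fold diluted in DMSO to S. pyogenes SSI-9 (2 × 10^5 CFU) in cation-adjusted Mueller Hinton broth with 5% laked horse blood. After 18 h at 37 °C, growth judged by visible cell precipitation.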

[3] = system: P388 mouse leukemia cells; settings: 92 h
Summary of the method: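 P388 cells at 1 × 10^4 cells/mL (final) were exposed to library peptides (stocks diluted 250-fold in RPMI1640/10% FBS) for 92 h at 37 °C, 5% CO2. Viable cells were counted by WST-1/1-methoxy PMS (4 h), absorbance 415 nm, and expressed as cell viability (%).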

With `CNC(=O)C[C@@H](NC(=O)[C@@H](NC(=O)[C@@H](CC(C)C)NC(=O)[C@H](C)NC(=O)[C@H](NC(=O)[C@H](C)NC(=O)CNC(=O)[C@@H](NC=O)C(C)C)C(C)C)C(C)C)C(=O)N[C@@H](Cc1c[nH]c2ccccc12)C(=O)N[C@@H](C(=O)N[C@@H](Cc1c[nH]c2ccccc12)C(=O)N[C@@H](C(=O)N[C@@H](Cc1c[nH]c2ccccc12)C(=O)N[C@@H](C(=O)N[C@@H](Cc1c[nH]c2ccccc12)C(=O)NCCO)C(C)C)C(C)C)C(C)C` [compound 12576] (For-VGA[dV]A[dL]V[dD](NHMe)W[dV]W[dV]W[dV]W-NHCH2CH2OH) the “H+/Na+ transport activity normalized against the value of 1 (1.00)” value (“H+/Na+ transport activity normalized” for short) [1] was 1.09, the antibacterial activity [2] was “-” and the cell viability/% [3] was 100.0%.

In the case of `CC(C)C[C@@H](NC(=O)[C@H](C)NC(=O)CNC(=O)[C@@H](NC=O)C(C)C)C(=O)N[C@@H](C)C(=O)N[C@@H](C(=O)N[C@H](C(=O)N[C@@H](C(=O)N[C@@H](Cc1c[nH]c2ccccc12)C(=O)N[C@@H](C(=O)N[C@@H](Cc1c[nH]c2ccccc12)C(=O)N[C@H](CC(C)C)C(=O)N[C@@H](Cc1c[nH]c2ccccc12)C(=O)N[C@H](CC(C)C)C(=O)N[C@@H](Cc1c[nH]c2ccccc12)C(=O)NCCO)C(C)C)[C@H](C)O)C(C)C)C(C)C` [compound 9832] (For-VGA[dL]A[dV]V[dT]W[dV]W[dL]W[dL]W-NHCH2CH2OH), the “H+/Na+ transport activity normalized” value [1] is reported as 1.26, the antibacterial activity [2] is reported as “-” and the cell viability/% [3] is reported as 100.0%.

In the case of `CC(C)C[C@@H](NC(=O)[C@H](Cc1c[nH]c2ccccc12)NC(=O)[C@H](NC(=O)[C@H](Cc1c[nH]c2ccccc12)NC(=O)[C@H](NC(=O)[C@H](Cc1c[nH]c2ccccc12)NC(=O)[C@@H](CC(C)C)NC(=O)[C@@H](NC(=O)[C@H](NC(=O)[C@H](C)NC(=O)[C@H](NC(=O)[C@H](C)NC(=O)CNC(=O)[C@@H](NC=O)C(C)C)C(C)C)C(C)C)C(C)C)C(C)C)[C@H](C)O)C(=O)N[C@@H](Cc1c[nH]c2ccccc12)C(=O)NCCO` [compound 8633] (For-VGA[dV]A[dV]V[dL]W[dV]W[dT]W[dL]W-NHCH2CH2OH), the “H+/Na+ transport activity normalized” value [1] is reported as 1.00, the antibacterial activity [2] is reported as “-” and the cell viability/% [3] is reported as 61.8%.

For `CC(C)C[C@@H](NC(=O)[C@H](Cc1c[nH]c2ccccc12)NC(=O)[C@@H](CC(C)C)NC(=O)[C@@H](NC(=O)[C@H](NC(=O)[C@H](C)NC(=O)[C@H](NC(=O)[C@H](C)NC(=O)CNC(=O)[C@@H](NC=O)C(C)C)[C@H](C)O)C(C)C)C(C)C)C(=O)N[C@@H](Cc1c[nH]c2ccccc12)C(=O)N[C@H](CC(C)C)C(=O)N[C@@H](Cc1c[nH]c2ccccc12)C(=O)N[C@@H](C(=O)N[C@@H](Cc1c[nH]c2ccccc12)C(=O)NCCO)C(C)C` [compound 4236] (For-VGA[dT]A[dV]V[dL]W[dL]W[dL]W[dV]W-NHCH2CH2OH), the “H+/Na+ transport activity normalized” value [1] was 1.43, the antibacterial activity [2] was “-” and the cell viability/% [3] was 93.0%.

In the case of `CC(C)C[C@@H](NC(=O)[C@H](C)NC(=O)[C@H](NC(=O)[C@H](C)NC(=O)CNC(=O)[C@@H](NC=O)C(C)C)C(C)C)C(=O)N[C@H](C(=O)N[C@@H](C(=O)N[C@@H](Cc1c[nH]c2ccccc12)C(=O)N[C@@H](C(=O)N[C@@H](Cc1c[nH]c2ccccc12)C(=O)N[C@@H](C(=O)N[C@@H](Cc1c[nH]c2ccccc12)C(=O)N[C@H](CC(C)C)C(=O)N[C@@H](Cc1c[nH]c2ccccc12)C(=O)NCCO)C(C)C)C(C)C)C(C)C)C(C)C` [compound 9192] (For-VGA[dV]A[dL]V[dV]W[dV]W[dV]W[dL]W-NHCH2CH2OH), the “H+/Na+ transport activity normalized” value [1] is reported as 1.07, the antibacterial activity [2] is reported as “-” and the cell viability/% [3] is reported as 100.0%.

For `CNC(=O)C[C@@H](NC(=O)[C@H](Cc1c[nH]c2ccccc12)NC(=O)[C@H](NC(=O)[C@H](Cc1c[nH]c2ccccc12)NC(=O)[C@@H](CC(C)C)NC(=O)[C@H](Cc1c[nH]c2ccccc12)NC(=O)[C@H](NC(=O)[C@@H](NC(=O)[C@@H](CC(C)C)NC(=O)[C@H](C)NC(=O)[C@H](NC(=O)[C@H](C)NC(=O)CNC(=O)[C@@H](NC=O)C(C)C)C(C)C)C(C)C)C(C)C)C(C)C)C(=O)N[C@@H](Cc1c[nH]c2ccccc12)C(=O)NCCO` [compound 7228] (For-VGA[dV]A[dL]V[dV]W[dL]W[dV]W[dD](NHMe)W-NHCH2CH2OH), the “H+/Na+ transport activity normalized” value [1] was 1.06, the antibacterial activity [2] was “-” and the cell viability/% [3] was 100.0%.

For `CC(C)C[C@@H](NC(=O)[C@H](C)NC(=O)[C@H](NC(=O)[C@H](C)NC(=O)CNC(=O)[C@@H](NC=O)C(C)C)[C@H](C)O)C(=O)N[C@H](C(=O)N[C@@H](C(=O)N[C@@H](Cc1c[nH]c2ccccc12)C(=O)N[C@@H](C(=O)N[C@@H](Cc1c[nH]c2ccccc12)C(=O)N[C@H](CC(C)C)C(=O)N[C@@H](Cc1c[nH]c2ccccc12)C(=O)N[C@H](CC(C)C)C(=O)N[C@@H](Cc1c[nH]c2ccccc12)C(=O)NCCO)C(C)C)C(C)C)C(C)C` [compound 4652] (For-VGA[dT]A[dL]V[dV]W[dV]W[dL]W[dL]W-NHCH2CH2OH), the “H+/Na+ transport activity normalized” value [1] was 1.03, the antibacterial activity [2] was “-” and the cell viability/% [3] was 100.0%.

With `CC(C)C[C@@H](NC(=O)[C@H](C)NC(=O)CNC(=O)[C@@H](NC=O)C(C)C)C(=O)N[C@@H](C)C(=O)N[C@H](CC(C)C)C(=O)N[C@H](C(=O)N[C@H](CC(C)C)C(=O)N[C@@H](Cc1c[nH]c2ccccc12)C(=O)N[C@@H](C(=O)N[C@@H](Cc1c[nH]c2ccccc12)C(=O)N[C@H](CC(C)C)C(=O)N[C@@H](Cc1c[nH]c2ccccc12)C(=O)N[C@@H](C(=O)N[C@@H](Cc1c[nH]c2ccccc12)C(=O)NCCO)[C@H](C)O)C(C)C)C(C)C` [compound 5508] (For-VGA[dL]A[dL]V[dL]W[dV]W[dL]W[dT]W-NHCH2CH2OH) the “H+/Na+ transport activity normalized” value [1] was 1.19, the antibacterial activity [2] was “-” and the cell viability/% [3] was 100.0%.

With `CC(C)C[C@@H](NC(=O)[C@H](Cc1c[nH]c2ccccc12)NC(=O)[C@H](NC(=O)[C@H](Cc1c[nH]c2ccccc12)NC(=O)[C@@H](CC(C)C)NC(=O)[C@@H](NC(=O)[C@H](NC(=O)[C@H](C)NC(=O)[C@H](NC(=O)[C@H](C)NC(=O)CNC(=O)[C@@H](NC=O)C(C)C)C(C)C)C(C)C)C(C)C)C(C)C)C(=O)N[C@@H](Cc1c[nH]c2ccccc12)C(=O)N[C@@H](C(=O)N[C@@H](Cc1c[nH]c2ccccc12)C(=O)NCCO)C(C)C` [compound 5526] (For-VGA[dV]A[dV]V[dL]W[dV]W[dL]W[dV]W-NHCH2CH2OH) the “H+/Na+ transport activity normalized” value [1] was 1.17, the antibacterial activity [2] was “+” and the cell viability/% [3] was 100.0%.

For `CC(C)C[C@@H](NC(=O)[C@H](Cc1c[nH]c2ccccc12)NC(=O)[C@@H](CC(C)C)NC(=O)[C@@H](NC(=O)[C@H](NC(=O)[C@H](C)NC(=O)[C@H](NC(=O)[C@H](C)NC(=O)CNC(=O)[C@@H](NC=O)C(C)C)[C@H](C)O)C(C)C)C(C)C)C(=O)N[C@@H](Cc1c[nH]c2ccccc12)C(=O)N[C@H](CC(C)C)C(=O)N[C@@H](Cc1c[nH]c2ccccc12)C(=O)N[C@@H](C(=O)N[C@@H](Cc1c[nH]c2ccccc12)C(=O)NCCO)C(C)C` [compound 11317] (For-VGA[dT]A[dV]V[dL]W[dL]W[dL]W[dV]W-NHCH2CH2OH), the “H+/Na+ transport activity normalized” value [1] was 1.02, the antibacterial activity [2] was “-” and the cell viability/% [3] was 42.1%.
